Measured values taken from patent US9623046B2, “Amphiphilic Janus-dendrimers” (The Trustees Of The University Of Pennsylvania, priority 2009, dated 2017).
Read-outs that look alike come from different tables or passages of the source.

Assays:
[1] = polymersomes and lipids (liposomes), comparison; cited from earlier work
Melittin = Melittin (Apis mellifera, UniProt P01501); settings: Melittin 63 μL, 300 μM into 2 mL suspension
[2] = system: human umbilical vein endothelial cells (HUVECs); assay: Cell viability, CellTiter-Blue assay; type: cell-based; settings: CellTiter-Blue, 1, 2 and 4 h, compared to control
Procedure: Since endothelial cells are the first point of contact for intravenous drug formulations, the toxicity of the dendrosomes was evaluated in vitro on human umbilical vein endothelial cells (HUVECs). HUVECs were cultured in EGM Endothelial Growth Media (LONZA) supplemented with bovine brain extract (BBE) with heparin, h-EGF, hydrocortisone, gentamicin, amphotericin B (GA-1000), and fetal bovine serum (FBS). Cells were maintained in plastic culture flasks at 37° C. in a humidified atmosphere containing 5% CO2 and were further subcultured when the flasks were 70% to 90% confluent. The passage number of the cells for the HUVECs in vitro studies was 5-8. The investigation of toxicity of dendrosomes and viability of the cells was assessed fluorometrically by determining the number of viable cells present in multiwell plates. Cell viability was determined using the indicator dye resazurin, which is reduced by viable cells to a highly fluorescent form resorufin according to Scheme S17. […] The CellTiter-Blue Cell Viability Assay was obtained from Promega.
HUVECs were plated at a density of 3,200 cells per well (10,000 cells/cm^2) in 96 well tissue culture plates and allowed to adhere overnight. Culture media was removed from the wells and replaced with 250 μL of either: 100% media, 94% media/6% PBS buffer, 87.5% media/12.5% PBS buffer, 75% media/25% PBS buffer, 100% PBS buffer, and various concentrations of sterile dendrosomes and polymersomes ranging from 0.25 mg to 0.0625 mg in the three concentrations of media/PBS, and maintained at 37° C. in a humidified atmosphere of 5% CO2. The dendrosomes and polymersomes were prepared by film the hydration method as described in section S5.1 and extruded 25 times through 100 nm polycarbonate membrane. Dendrosomes and polymersomes were sterilized by exposing them for […] min to UV irradiation. […] The fluorescence intensity at 590 nm emanating from the wells when excited at 560 nm was then determined using a TECAN Inifinite2000 plate reader.

[3] = Micropipette aspiration of giant unilamellar dendrosomes (mechanical properties); type: physicochemical
Procedure: The elastic properties of dendrosome membranes were determined by micropipette aspiration following an analogous procedure described previously (Needham, Biophys. J. 58, 997-1009 (1990)). Giant unilamelar (˜[…] diameter) dendrosomes were prepared by Teflon film hydration as described herein and dispersed into iso-osmotic ultrapure water. Glass micropipettes with inner diameter from ˜3 μm to ˜10 μm were filled with iso-osmotic ultrapure water and connected to an aspiration station mounted on the side of a Zeiss inverted microscope, equipped with a manometer. The pipettes were used to manipulate the dendrosomes and to apply well-defined stress to the wall by inducing suction tension on their membranes.
The micropipette suction pressure is controlled in the range of microatmospheres and tenths of atmospheres (0.1 N/m^2 to 10000 N/m^2). The tension results in deformation and consequently provides direct measurements of the elastic moduli, which characterizes the membrane area expansion and bending, together with other parameter that characterize the tensile failure of the vesicle membrane according to the equations (1) and (2): Ka=Δτ/Δα (1) Es=Ka(αc)^2/2 (2) were Ka=elastic area expansion modulus; Δτ=fractional tension; τs=membrane tension at failure; Δα=fractional increase in membrane area; αc=critical areal strain-fractional increase in membrane area at failure, and Es=energy stored at failure Results are presented in the Table below.

[4] = Dynamic light scattering of dendrosomes formed by ethanol injection (size, polydispersity); type: physicochemical
Procedure: Dynamic light scattering measurements (DLS) were performed with a Malvern Instruments particle sizer (Zetasizer® Nano S, Malvern Instruments, UK).
Small unilamellar dendrosomes of <200 nm size were obtained by fast injection of 100 μL of ethanol (THF, acetone, dioxane, acetonitrile or DMSO for the solvent dependence studies) solution containing 10 mg of Janus-dendrimer dissolved in 1 mL of solvent into various volumes of milippore water (0.5 mL-5 mL) giving final Janus-dendrimer concentrations of 0.1-2 mg/mL. Dendrosomes obtained via injection method were used without further manipulation to study the influence of concentration, solvent, temperature and time on size and polydispersity by dynamic light scattering (DLS) as well as for the characterization of dendrosome morphologies via cryogenic transmission electron microscopy (cryo-TEM).
Dendrosomes were formed according to the general method discussed herein at final concentrations from 0.5-20 mg/mL. DLS measurements were carried out immediately following injection and repeated after 60 min. […] Monomodal distributions were obtained from 0.5-7 mg/mL and bimodal distributions from 10-20 mg/mL. […] At concentrations over […], multimodal size distributions and increased flocculation in time was observed.
Dendrosomes were formed according to the general method discussed herein at final concentrations of 0.5 mg/mL aqueous solution.

[5] = Miscibility of Janus-dendrimers with phospholipids (microscopy, DSC); type: physicochemical; settings: 1:1 ratio, film hydration
[6] = concentrations of 0.5-2 mg/mL, unimodal distributions

Melittin, sequence (P01501 44-69 limits assumed): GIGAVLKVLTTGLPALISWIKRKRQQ

Q: For CCCCCCCCCCCCCC(=O)OC[C@H](COP(=O)([O-])OCC[N+](C)(C)C)OC(=O)CCCCCCCCCCCCC [DMPC], which “Ka (elastic area expansion modulus)” value [1] is on record?
A: 234 mN/m

Q: With CCCCCCCC/C=C\CCCCCCCC(=O)O[C@H](COC(=O)CCCCCCCCCCCCCCCCC)COP(=O)([O-])OCC[N+](C)(C)C [SOPC, 1-Stearoyl-2-Oleoyl-Sn-Glycero-3-Phosphatidylcholine, reference compound] as the molecule, how does the “CD signal after Melittin addition” value (Melittin) read?
A: showed CD signal

Q: With “(3,4)12G1-PE-(3,4,5)-3EO-G1-(OCH3)6 [Dendrosome 1]” as the molecule, how does the “cell viability / toxicity” value [2] read?
A: excellent biocompatibility

Q: For “(3,4)12G1-PE-BMPA-G2-(OH)8 [(3,4)12G1-PE-BMPA-(OH)8]”, which “Critical αc (critical areal strain)” value [3] is on record?
A: 0.04

Q: And the “Energy stored at failure” value [3]?
A: 0.42 mJ/m^2

Q: What about the “Ka (elastic area expansion modulus)” value [3] of the same molecule?
A: 961 mN/m

Q: What about the “Lysis Tension τs” value [3] of the same molecule?
A: 20.4 mN/m

Q: What about the PDI [4, 6] of the same molecule?
A: 0.07-0.2

Q: And the sizes [4, 6]?
A: 111-175 nm

Q: Which “Critical αc (critical areal strain)” value [3] does the source give for (3,4,5)12G1-PE-(3,4,5)-3EO-G1-(OH)6 here?
A: 0.04

Q: What about the “Energy stored at failure” value [3] of the same molecule?
A: 0.27 mJ/m^2

Q: What about the “Ka (elastic area expansion modulus)” value [3] of the same molecule?
A: 267.5 mN/m

Q: And the “Lysis Tension τs” value [3]?
A: 12.7 mN/m

Q: And the “cell viability / toxicity” value [2]?
A: excellent biocompatibility

Q: Which results are given for “(3,4,5)12G1-PE-BMPA-G2-(OH)8 [(3,4,5)12G1-PE-BMPA-(OH)8]”?
A: Critical αc (critical areal strain) [3]: 0.06; Energy stored at failure [3]: 0.11 mJ/m^2; Ka (elastic area expansion modulus) [3]: 42.44 mN/m; Lysis Tension τs [3]: 0.88 mN/m

Q: Which “Critical αc (critical areal strain)” value [3] does the source give for (3,5)12G1-PE-(3,4)-3EO-G1-(OH)4 here?
A: 0.06

Q: What about the “Energy stored at failure” value [3] of the same molecule?
A: 0.73 mJ/m^2

Q: What about the “Ka (elastic area expansion modulus)” value [3] of the same molecule?
A: 582.5 mN/m

Q: What about the “Lysis Tension τs” value [3] of the same molecule?
A: 15.11 mN/m

Q: Which “cell viability / toxicity” value [2] does the source give for “(3,5)12G1-PE-(3,4,5)-3EO-G1-(OCH3)6 [Dendrosome 2]” here?
A: excellent biocompatibility

Q: With “(3,5)12G1-PE-BMPA-G2-(OH)8 [(3,5)12G1-PE-BMPA-(OH)8]” as the molecule, how does the “Critical αc (critical areal strain)” value [3] read?
A: 0.03

Q: And the “Energy stored at failure” value [3]?
A: 0.69 mJ/m^2

Q: What about the “Ka (elastic area expansion modulus)” value [3] of the same molecule?
A: 976 mN/m

Q: What about the “Lysis Tension τs” value [3] of the same molecule?
A: 15.5 mN/m

Q: And the Z-average size ([4]; concentration 0.5 mg/mL)?
A: 94 nm

Q: And the polydispersity ([4]; concentration 0.5 mg/mL)?
A: 0.04

Q: And the Z-average size ([4]; concentration 10 mg/mL)?
A: 330 nm

Q: And the polydispersity ([4]; concentration 10 mg/mL)?
A: 0.17

Q: And the PDI ([4]; concentration of 20 mg/mL)?
A: 0.4

Q: What about the sizes ([4]; concentration of 20 mg/mL) of the same molecule?
A: 1004 nm

Q: And the sizes ([4]; concentrations of 0.5-10 mg/mL)?
A: 94-330 nm

Q: What about the “miscibility with SOPC” value [5] of the same molecule?
A: confirmed by DSC

Q: And the “CD signal after Melittin addition” value (Melittin)?
A: showed CD signal

Q: Which “Critical αc (critical areal strain)” value [1] does the source give for DAPC here?
A: 0.04

Q: And the “Ka (elastic area expansion modulus)” value [1]?
A: 57 mN/m

Q: And the “Lysis Tension τs” value [1]?
A: 2.3 mN/m
